Reference: PMC11672294, “The Antipsychotic Drug Aripiprazole Suppresses Colorectal Cancer by Targeting LAMP2a to Induce RNH1/miR‐99a/mTOR‐Mediated Autophagy and Apoptosis” (Advanced Science, 2024)
Structures can show the parent of a compound that is named as a salt.

System: HT29
Settings: 72 h, relative to DMSO, 10 µM, Relative cell viability (%)
Outline: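 Cells were exposed to drug for 72 h, then to WST-1 for 2 h at 37 °C, and absorbance was read at 450 nm as viability against DMSO treatment. In the screen, each compound was applied at 10 µM.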

Compound | Relative cell viability (%)
CC/C(=C(\c1ccccc1)c1ccc(OCCN(C)C)cc1)c1ccccc1 [Tamoxifen Citrate] | 47.42%
CC/C(=C(\c1ccccc1)c1ccc(OCCN(C)C)cc1)c1ccccc1 [Tamoxifen] | 18.22%
COc1cc2nc(N3CCN(C(=O)C4CCCO4)CC3)nc(N)c2cc1OC (stereo not shown) [Terazosin HCl] | 142.1%
COc1cc2nc(N3CCN(C(=O)C4CCCO4)CC3)nc(N)c2cc1OC (stereo not shown) [Terazosin] | 88.03%
C[C@@H]1CCN(C(=O)CC#N)C[C@@H]1N(C)c1ncnc2[nH]ccc12 [Tofacitinib (CP-690550) Citrate] | 115%
C[C@@H]1CCN(C(=O)CC#N)C[C@@H]1N(C)c1ncnc2[nH]ccc12 [Tofacitinib (CP-690550,Tasocitinib)] | 51.94%

Same assay, conditions: 72 h, relative to DMSO; 10 µM

Compound | Relative cell viability (%)
CC(C)OC(=O)[C@H](C)N[P@](=O)(OC[C@H]1O[C@@H](n2ccc(=O)[nH]c2=O)[C@](C)(F)[C@@H]1O)Oc1ccccc1 [Sofosbuvir (PSI-7977, GS-7977)] | 121.8%
CNC(=O)c1cc(Oc2ccc(NC(=O)Nc3ccc(Cl)c(C(F)(F)F)c3)cc2)ccn1 [Sorafenib] | 21.37%
OC[C@@H](O)[C@@H](O)[C@H](O)[C@@H](O)CO [Sorbitol] | 125%
CN1CCN(c2nc(C3=C(c4c[nH]c5ccccc45)C(=O)NC3=O)c3ccccc3n2)CC1 [Sotrastaurin] | 49.03%
C[C@@H]1CN(c2c(F)c(N)c3c(=O)c(C(=O)O)cn(C4CC4)c3c2F)C[C@H](C)N1 [Sparfloxacin] | 75.42%
CN(N=O)C(=O)N[C@@H](C=O)[C@@H](O)[C@H](O)[C@H](O)CO [Streptozotocin (STZ)] | 74.3%
CC1(C)[C@H](C(=O)O)N2C(=O)C[C@H]2S1(=O)=O [Sulbactam] | 199.5%
Nc1ccc(S(=O)(=O)Nc2ncccn2)cc1 [Sulfadiazine] | 85.59%
[H]/N=C(/N)NS(=O)(=O)c1ccc(N)cc1 [Sulfaguanidine] | 70.303%
Cc1nnc(NS(=O)(=O)c2ccc(N)cc2)s1 [Sulfamethizole] | 202.3%
COc1ccc(NS(=O)(=O)c2ccc(N)cc2)nn1 [Sulfamethoxypyridazine] | 72.12%
Cc1noc(NS(=O)(=O)c2ccc(N)cc2)c1C [Sulfisoxazole] | 134.3%
CC1=C(CC(=O)O)c2cc(F)ccc2/C1=C\c1ccc([S+](C)[O-])cc1 (stereo not shown) [Sulindac] | 216.9%
COc1cc(NS(=O)(=O)c2ccc(N)cc2)nc(OC)n1 [Sulphadimethoxine] | 86.06%
CCN(CC)CCNC(=O)c1c(C)[nH]c(/C=C2\C(=O)Nc3ccc(F)cc32)c1C [Sunitinib] | 29.06%
CC(C(=O)O)c1ccc(C(=O)c2cccs2)cc1 (stereo not shown) [Suprofen] | 93.22%
Cc1ccc(-n2nccn2)c(C(=O)N2CCN(c3nc4cc(Cl)ccc4o3)CC[C@H]2C)c1 [Suvorexant (MK-4305)] | 90.6%
Cc1cnc(Nc2ccc(OCCN3CCCC3)cc2)nc1Nc1cccc(S(=O)(=O)NC(C)(C)C)c1 [TG101348 (SAR302503)] | 16.99%
Cn1c(COP(=O)(NCCBr)NCCBr)cnc1[N+](=O)[O-] [TH-302] | 83.98%
C=CC[C@@H]1/C=C(\C)C[C@H](C)C[C@H](OC)[C@H]2O[C@@](O)(C(=O)C(=O)N3CCCC[C@H]3C(=O)O[C@H](/C(C)=C/[C@@H]3CC[C@@H](O)[C@H](OC)C3)[C@H](C)[C@@H](O)CC1=O)[C@H](C)C[C@@H]2OC [Tacrolimus (FK506)] | 102.1%
CN(C(=O)c1ccc(F)cc1C(F)(F)F)C1CCN(c2nnc(-c3ccnn3C)c3ccccc23)CC1 [Taladegib (LY2940680)] | 105.5%

Compound | Relative cell viability (%)
CC1(C)CCC(C)(C)c2cc(NC(=O)c3ccc(C(=O)O)cc3)ccc21 [Tamibarotene] | 94.85%
O=C(NS(=O)(=O)c1ccc(Br)s1)c1ccc(Cl)cc1Cl [Tasisulam] | 94.44%
CCCc1nc2c(C)cc(-c3nc4ccccc4n3C)cc2n1Cc1ccc(-c2ccccc2C(=O)O)cc1 [Telmisartan] | 47.46%
CCOC(=O)[C@@H](N)Cc1ccc(-c2cc(O[C@H](c3ccc(Cl)cc3-n3ccc(C)n3)C(F)(F)F)nc(N)n2)cc1 [Telotristat Etiprate (LX 1606 Hippurate)] | 86.05%
CCOC(=O)[C@H](CCc1ccccc1)N[C@H]1CS[C@H](c2cccs2)CN(CC(=O)O)C1=O [Temocapril HCl] | 117.3%
Cn1nnc2c(C(N)=O)ncn2c1=O [Temozolomide] | 86.76%
COc1cc([C@@H]2c3cc4c(cc3[C@@H](O[C@@H]3O[C@@H]5CO[C@@H](c6cccs6)O[C@H]5[C@H](O)[C@H]3O)[C@H]3COC(=O)[C@H]23)OCO4)cc(OC)c1O [Teniposide] | 34.75%
CC(C)OC(=O)[C@H](C)N[P@](=O)(CO[C@H](C)Cn1cnc2c(N)ncnc21)Oc1ccccc1 [Tenofovir Alafenamide (GS-7340)] | 125.2%
CN1CCC(COc2cnc(-c3cccc(Cn4nc(-c5cccc(C#N)c5)ccc4=O)c3)nc2)CC1 [Tepotinib (EMD 1214063)] | 11.11%
C/C(O)=C(\C#N)C(=O)Nc1ccc(C(F)(F)F)cc1 [Teriflunomide] | 75.76%
c1ccc2[nH]c(-c3cscn3)nc2c1 [Thiabendazole] | 70.34%
O=c1sn(-c2cccc3ccccc23)c(=O)n1Cc1ccccc1 [Tideglusib] | 51.94%
Clc1ccc(C(Cn2ccnc2)OCc2ccsc2Cl)c(Cl)c1 (stereo not shown) [Tioconazole] | 135.7%
CC(S)C(=O)NCC(=O)O (stereo not shown) [Tiopronin] | 149.2%
O=c1oc2cc(O)ccc2s1 [Tioxolone] | 114.6%
O=C(O)Cc1cc(I)c(Oc2ccc(O)c(I)c2)c(I)c1 [Tiratricol] | 83.03%
O=C1NC(=O)[C@@H](c2cn3c4c(cccc24)CCC3)[C@@H]1c1c[nH]c2ccccc12 [Tivantinib (ARQ 197)] | 27.18%
CCCCNC(=O)NS(=O)(=O)c1ccc(C)cc1 [Tolbutamide] | 106.1%
Cc1c(Cl)cccc1Nc1ccccc1C(=O)O [Tolfenamic Acid] | 166.2%
Cc1cccc(N(C)C(=S)Oc2ccc3ccccc3c2)c1 [Tolnaftate] | 126.1%
Cc1ccc(C(=O)C(C)CN2CCCCC2)cc1 (stereo not shown) [Tolperisone HCl] | 89.39%

Compound | Relative cell viability (%)
Cc1ccccc1C(=O)Nc1ccc(C(=O)N2CCCC(O)c3cc(Cl)ccc32)c(C)c1 (stereo not shown) [Tolvaptan] | 54.85%
CC[C@@]1(O)C(=O)OCc2c1cc1n(c2=O)Cc2cc3c(CN(C)C)c(O)ccc3nc2-1 [Topotecan HCl] | 16.67%
CN(C)CCOc1ccc(/C(=C(/CCCl)c2ccccc2)c2ccccc2)cc1 [Toremifene Citrate] | 34.75%
CC(=O)Nc1cccc(-n2c(=O)n(C3CC3)c(=O)c3c(Nc4ccc(I)cc4F)n(C)c(=O)c(C)c32)c1 [Trametinib (GSK1120212)] | 35.92%
Cn1c(=O)cc(N2CCC[C@@H](N)C2)n(Cc2cc(F)ccc2C#N)c1=O [Trelagliptin] | 63.68%
C[C@]12C=CC(=O)C=C1CC[C@H]1[C@@H]3C[C@@H](O)[C@](O)(C(=O)CO)[C@@]3(C)C[C@H](O)[C@@]12F [Triamcinolone] | 171.8%
O=c1[nH]c(=O)n([C@H]2C[C@H](O)[C@@H](CO)O2)cc1C(F)(F)F [Trifluridine] | 53.81%
CCC(COC(=O)c1cc(OC)c(OC)c(OC)c1)(c1ccccc1)N(C)C (stereo not shown) [Trimebutine] | 107.3%
NC(CO)(CO)CO [Trometamol] | 73.94%
CCN(Cc1ccncc1)C(=O)C(CO)c1ccccc1 (stereo not shown) [Tropicamide] | 144.5%
CN1[C@@H]2CC[C@H]1C[C@@H](OC(=O)c1c[nH]c3ccccc13)C2 [Tropisetron] | 115.5%
CC(C)Nc1cc(-c2c[nH]c(C(=O)N[C@H](CO)c3cccc(Cl)c3)c2)c(Cl)cn1 [Ulixertinib (BVD-523, VRT752271)] | 30.34%
Cn1ncc(Cl)c1-c1cc(C(=O)N[C@H](CN)Cc2ccc(F)c(F)c2)oc1Cl [Uprosertib (GSK2141795)] | 4.701%
O=c1cc[nH]c(=O)[nH]1 [Uracil] | 73.94%
COc1ccccc1N1CCN(CCCNc2cc(=O)n(C)c(=O)n2C)CC1 [Urapidil HCl] | 222.9%
O=c1ccn([C@@H]2O[C@H](CO)[C@@H](O)[C@H]2O)c(=O)[nH]1 [Uridine] | 222.2%
CC(C)[C@H](N)C(=O)OCCOCn1cnc2c(=O)[nH]c(N)nc21 [Valaciclovir HCl] | 85.59%
C=C[C@]1(C)C[C@@H](OC(=O)CSC(C)(C)CNC(=O)[C@H](N)C(C)C)[C@]2(C)[C@H](C)CC[C@]3(CCC(=O)[C@H]32)[C@@H](C)[C@@H]1O [Valnemulin HCl] | 68.48%
CCCCC(=O)N(Cc1ccc(-c2ccccc2-c2nnn[nH]2)cc1)[C@H](C(=O)O)C(C)C [Valsartan] | 83.05%
C[C@@H]1COC(Nc2ccc3ncnc(Nc4ccc(OCc5nccs5)c(Cl)c4)c3c2)=N1 [Varlitinib] | 111.6%
CCCS(=O)(=O)Nc1ccc(F)c(C(=O)c2c[nH]c3ncc(-c4ccc(Cl)cc4)cc23)c1F [Vemurafenib (PLX4032, RG7204)] | 36.92%

Same assay, conditions: ht29 cells, 72 h, 10 µM

Compound | Relative cell viability (%)
C[C@]12Cc3c[nH]nc3C[C@@H]1CC[C@@H]1[C@@H]2CC[C@@]2(C)[C@H]1CC[C@]2(C)O [Stanozolol] | 83.05%
